37 compounds from ChEMBL document CHEMBL1141401, “Structure-selectivity investigations of D2-like receptor ligands by CoMFA and CoMSIA guiding the discovery of D3 selective PET radioligands” (J Med Chem, 2007) can be followed below.

Assay [1] addresses T1, D(2) dopamine receptor (Homo sapiens, UniProt P14416).
Description: Binding affinity to dopamine D2
Assay [2] deals with T2, D(3) dopamine receptor (Homo sapiens, UniProt P35462). The assay is described as follows: biochemical.
Description: (§1) Displacement of [3H]spiperone from human dopamine D3 expressed in CHO cell membrane
For another assay, the target named is T3, D(4) dopamine receptor (Homo sapiens, UniProt P21917).
T3 sequence (P21917 whole entry): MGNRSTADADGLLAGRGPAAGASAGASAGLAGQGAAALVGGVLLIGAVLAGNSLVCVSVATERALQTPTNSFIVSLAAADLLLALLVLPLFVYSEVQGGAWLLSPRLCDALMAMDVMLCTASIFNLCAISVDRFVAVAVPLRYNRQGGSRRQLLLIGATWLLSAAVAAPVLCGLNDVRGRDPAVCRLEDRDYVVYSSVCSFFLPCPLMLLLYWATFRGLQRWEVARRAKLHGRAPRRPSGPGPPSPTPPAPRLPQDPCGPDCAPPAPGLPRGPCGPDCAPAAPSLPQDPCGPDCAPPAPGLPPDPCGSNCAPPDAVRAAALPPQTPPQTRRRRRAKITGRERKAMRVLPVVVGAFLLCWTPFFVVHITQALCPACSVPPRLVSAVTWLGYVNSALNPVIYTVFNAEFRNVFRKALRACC
The experiment in a line: biochemical.

In assay [3] the target is T2, D(3) dopamine receptor.
Description: as §1
Another assay deals with D(1A) dopamine receptor (Sus scrofa, UniProt P50130). The experiment in a line: Displacement of [3H][…] from porcine dopamine D1 in porcine striatal membrane. Format: cell membranes, Striatum.
For assay [4], the target named is T1, D(2) dopamine receptor. The assay is described as follows: Displacement of [3H]spiperone from human dopamine D2(long) expressed in CHO cell membrane. For orientation: In a radioligand displacement assay an active substance lowers the binding of a labelled ligand.
Assay [5] has as its target T1, D(2) dopamine receptor. The assay is described as follows: Displacement of [3H]spiperone from human dopamine D2(short) expressed in CHO cell membrane.
For assay [6], the target named is T4, 5-hydroxytryptamine receptor 1A (Homo sapiens, UniProt P08908).
T4 sequence (P08908 whole entry): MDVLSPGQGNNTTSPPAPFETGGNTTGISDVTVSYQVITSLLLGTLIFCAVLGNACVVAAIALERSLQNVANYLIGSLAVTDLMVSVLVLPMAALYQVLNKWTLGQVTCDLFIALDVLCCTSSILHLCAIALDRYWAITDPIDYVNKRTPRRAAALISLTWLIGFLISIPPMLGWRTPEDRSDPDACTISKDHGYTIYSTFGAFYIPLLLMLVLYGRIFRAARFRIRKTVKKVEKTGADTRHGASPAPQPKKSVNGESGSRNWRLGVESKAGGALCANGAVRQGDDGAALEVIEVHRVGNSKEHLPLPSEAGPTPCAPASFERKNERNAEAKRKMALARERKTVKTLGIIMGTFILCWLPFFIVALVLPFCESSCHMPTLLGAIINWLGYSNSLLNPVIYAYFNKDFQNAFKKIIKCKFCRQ
The experiment in a line: Displacement of [3H]8-OH-DPAT from human 5HT1A receptor expressed in CHO cells. The assay is classed as cell-based.

Assay [7] deals with Serotonin 2 (5-HT2) receptor (Homo sapiens, UniProt P41595+P28223+P28335). The assay is described as follows: Displacement of [3H]ketanserin from human 5HT2 receptor expressed in CHO cells. The assay is classed as cell-based.

T1 sequence (P14416 whole entry): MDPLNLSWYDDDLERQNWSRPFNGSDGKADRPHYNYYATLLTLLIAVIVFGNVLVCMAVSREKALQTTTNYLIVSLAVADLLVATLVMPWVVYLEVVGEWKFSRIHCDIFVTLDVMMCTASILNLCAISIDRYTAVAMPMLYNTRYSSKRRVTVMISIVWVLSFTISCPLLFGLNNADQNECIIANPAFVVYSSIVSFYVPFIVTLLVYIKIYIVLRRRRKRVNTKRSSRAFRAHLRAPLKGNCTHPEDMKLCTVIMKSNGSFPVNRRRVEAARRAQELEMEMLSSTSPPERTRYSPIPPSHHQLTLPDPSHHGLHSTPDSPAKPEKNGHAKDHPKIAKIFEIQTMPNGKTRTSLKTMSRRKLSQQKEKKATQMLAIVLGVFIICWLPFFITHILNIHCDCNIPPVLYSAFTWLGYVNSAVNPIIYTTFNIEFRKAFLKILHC
T2 sequence (P35462 whole entry): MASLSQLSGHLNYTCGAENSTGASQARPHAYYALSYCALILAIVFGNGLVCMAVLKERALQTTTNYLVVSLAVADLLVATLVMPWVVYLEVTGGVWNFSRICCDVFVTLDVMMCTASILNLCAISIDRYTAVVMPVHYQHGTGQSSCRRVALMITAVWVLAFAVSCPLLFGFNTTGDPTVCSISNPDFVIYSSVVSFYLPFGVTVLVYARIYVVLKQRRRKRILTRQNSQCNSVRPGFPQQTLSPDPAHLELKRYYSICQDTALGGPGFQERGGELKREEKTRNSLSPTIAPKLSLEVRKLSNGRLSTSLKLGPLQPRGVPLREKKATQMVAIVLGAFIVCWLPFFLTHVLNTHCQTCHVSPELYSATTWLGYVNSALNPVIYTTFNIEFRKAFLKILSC
Chain of D(1A) dopamine receptor (P50130 whole entry): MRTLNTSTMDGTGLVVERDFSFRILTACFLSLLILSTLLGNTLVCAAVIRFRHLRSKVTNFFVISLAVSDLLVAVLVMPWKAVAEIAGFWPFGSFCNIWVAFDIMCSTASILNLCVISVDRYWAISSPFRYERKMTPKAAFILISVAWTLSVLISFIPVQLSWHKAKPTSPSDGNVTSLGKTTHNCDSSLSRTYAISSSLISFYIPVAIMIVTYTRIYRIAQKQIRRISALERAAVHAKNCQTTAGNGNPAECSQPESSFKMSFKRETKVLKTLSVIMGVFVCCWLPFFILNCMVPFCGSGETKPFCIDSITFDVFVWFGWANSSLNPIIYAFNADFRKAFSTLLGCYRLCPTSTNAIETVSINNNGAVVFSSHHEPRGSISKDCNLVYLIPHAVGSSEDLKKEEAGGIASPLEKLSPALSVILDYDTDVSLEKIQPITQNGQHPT
Description for D(4) dopamine receptor: Displacement of [3H]spiperone from human dopamine D4.4 expressed in CHO cell membrane

As for `COc1ccccc1N1CCN(CCCCCNC(=O)c2nnn(Cc3ccccc3Br)c2C)CC1`, the Ki – broadly, the equilibrium dissociation constant of an inhibitor or competing ligand from its target – on D(2) dopamine receptor [1] was 4.9 nM; on D(3) dopamine receptor [2] it was 15.1 nM; on D(4) dopamine receptor, 41.7 nM.

For `O=C(NCCCCN1CCN(c2cccc(Cl)c2Cl)CC1)c1cc2cc(Br)ccc2[nH]1`, the inhibition constant (Ki) was 2290 nM on D(2) dopamine receptor [1], 0.741 nM at D(3) dopamine receptor [2] and 603 nM at D(4) dopamine receptor.

Consider `N#Cc1ccc2cc(C(=O)NCCCCN3CCN(c4cccc(Cl)c4Cl)CC3)[nH]c2c1`, for which the Ki on D(2) dopamine receptor [1] was 339 nM; at D(3) dopamine receptor [2], 0.355 nM; at D(4) dopamine receptor, 631 nM.

As for `O=C(NCCCCN1CCN(c2ccccc2Cl)CC1)c1ccc2ccccc2c1`, the values for the Ki on D(2) dopamine receptor [1], on D(3) dopamine receptor [2] and on D(4) dopamine receptor were 457 nM, 1 nM and 200 nM, respectively.

For the compound `COc1ccccc1N1CCN(CCCCNC(=O)c2cc3cc(C#N)ccc3s2)CC1`, the inhibition constant (Ki) on D(2) dopamine receptor [1] is 67.6 nM; on D(3) dopamine receptor [3], 0.457 nM; at D(4) dopamine receptor, 44.7 nM.

In the case of `CCCc1c(C(=O)NCCCCN2CCN(c3ccccc3OC)CC2)nnn1Cc1ccc(OC)cc1`, the Ki at D(2) dopamine receptor [1] is 42.7 nM; on D(3) dopamine receptor [2], 12.9 nM; on D(4) dopamine receptor it was 129 nM.

For the compound `C#Cc1ccc2cc(C(=O)NCCCCN3CCN(c4ccccc4OC)CC3)sc2c1`, the figures for the Ki on D(2) dopamine receptor [1], on D(3) dopamine receptor [2] and at D(4) dopamine receptor were 200 nM, 0.38 nM and 151 nM, respectively.

With `COc1ccccc1N1CCN(CCCCNC(=O)c2cc3cc(Br)ccc3[nH]2)CC1`, the inhibition constant (Ki) was 110 nM on D(2) dopamine receptor [1], 0.245 nM at D(3) dopamine receptor [2] and 15.8 nM at D(4) dopamine receptor.

In the case of `CCCc1c(C(=O)NCCCCN2CCN(c3ccccc3OC)CC2)nnn1Cc1ccccc1`, the inhibition constant Ki is 57.5 nM at D(2) dopamine receptor [1], 11 nM at D(3) dopamine receptor [2] and 302 nM at D(4) dopamine receptor.

For `COc1ccccc1N1CCN(CCCCNC(=O)c2cc3ccc(C#N)cc3[nH]2)CC1`, the Ki was 158 nM on D(2) dopamine receptor [1], 0.251 nM on D(3) dopamine receptor [3] and 39.8 nM at D(4) dopamine receptor.

For `Clc1ccc(N2CCN(Cc3cnn4c(I)cccc34)CC2)cc1`, the inhibition constant Ki was 7590 nM on D(2) dopamine receptor [1] and 2690 nM on D(3) dopamine receptor [2].

For the compound `O=C(NCCCCN1CCN(c2ccccc2Cl)CC1)c1ccc(Cl)cc1`, the figures for the Ki at D(2) dopamine receptor [1], on D(3) dopamine receptor [2] and on D(4) dopamine receptor were 468 nM, 1.7 nM and 282 nM, respectively.

For `COc1ccccc1N1CCN(CCCCNC(=O)c2cc3cc(C#N)ccc3[nH]2)CC1`, the inhibition constant (Ki) on D(2) dopamine receptor [1] was 141 nM; on D(3) dopamine receptor [2], 0.575 nM; at D(4) dopamine receptor, 24 nM.

As to `COc1ccc(Cn2nnc(C(=O)NCCCCCN3CCN(c4ccccc4OC)CC3)c2C)cc1`, the inhibition constant (Ki) on D(2) dopamine receptor [1] is 17 nM; at D(3) dopamine receptor [2], 87.1 nM; on D(4) dopamine receptor, 269 nM.

Turning to `CCCc1c(C(=O)NCCCCCN2CCN(c3ccccc3OC)CC2)nnn1Cc1ccccc1Br`, the inhibition constant Ki at D(2) dopamine receptor [1] is 5.25 nM; at D(3) dopamine receptor [2], 7.41 nM; at D(4) dopamine receptor it was 39.8 nM.

With `C#Cc1ccc2sc(C(=O)NCCCCN3CCN(c4ccccc4OC)CC3)cc2c1`, the results for the inhibition constant (Ki) at D(2) dopamine receptor [1], on D(3) dopamine receptor [2] and on D(4) dopamine receptor were 407 nM, 0.389 nM and 30.9 nM, respectively.

On to `COc1ccc(C(=O)NCCCCN2CCN(c3ccccc3Cl)CC2)cc1OC`, for which the Ki was 282 nM on D(2) dopamine receptor [1], 3.09 nM at D(3) dopamine receptor [2] and 170 nM on D(4) dopamine receptor.

Take `COc1ccccc1N1CCN(CCCCCNC(=O)c2nnn(Cc3ccccc3)c2C)CC1`: the Ki on D(2) dopamine receptor [1] is 9.33 nM; on D(3) dopamine receptor [2], 15.8 nM; at D(4) dopamine receptor, 158 nM.

As for `c1ccc(C2CCN(Cc3cnn(-c4ccccc4)c3)CC2)cc1`, the Ki at D(2) dopamine receptor [1] was 38 nM; at D(3) dopamine receptor [2], 33.1 nM; on D(4) dopamine receptor, 0.589 nM.

Turning to `COc1ccccc1N1CCN(CCCCNC(=O)c2ccc(-c3ccc([18F])nc3)cc2)CC1`, the Ki on D(1A) dopamine receptor was 1300 nM; on D(2) dopamine receptor [4], 15 nM; at D(2) dopamine receptor [5], 12 nM; in assay [6], 21 nM; in [7], 760 nM; at D(3) dopamine receptor [2], 0.45 nM. For the same compound, on D(4) dopamine receptor, the inhibitory constant (Ki) stood at 34 nM.

As for `COc1ccccc1N1CCN(CCCCNC(=O)c2ccc(-c3cccc([18F])n3)cc2)CC1`, the inhibition constant (Ki) on D(1A) dopamine receptor is 870 nM; at D(2) dopamine receptor [4], 27 nM; on D(2) dopamine receptor [5], 16 nM; in [6] it was 16 nM; in [7], 450 nM; on D(3) dopamine receptor [2] it was 0.37 nM. For the same compound, the affinity on D(4) dopamine receptor corresponds to a Ki of 28 nM.

For the compound `COc1ccccc1N1CCN(CCCCNC(=O)c2cc3cc(Br)ccc3o2)CC1`, the figures for the Ki at D(2) dopamine receptor [1], on D(3) dopamine receptor [3] and at D(4) dopamine receptor were 95.5 nM, 0.692 nM and 17 nM, respectively.

Take `c1ccc(C2CCN(Cc3cn(-c4ccccc4)nn3)CC2)cc1`: the figures for the Ki at D(2) dopamine receptor [1], on D(3) dopamine receptor [2] and at D(4) dopamine receptor were 219 nM, 93.3 nM and 3.24 nM, respectively.

Regarding `COc1ccccc1N1CCN(CCCCNC(=O)c2nnn(Cc3ccccc3)c2C)CC1`, the Ki at D(2) dopamine receptor [1] was 229 nM; on D(3) dopamine receptor [2] it was 67.6 nM; on D(4) dopamine receptor, 977 nM.

In the case of `COc1ccc(Cn2nnc(C(=O)NCCCCCN3CCN(c4cccc(Cl)c4Cl)CC3)c2C)cc1`, the Ki is 9.12 nM at D(2) dopamine receptor [1], 33.9 nM at D(3) dopamine receptor [2] and 288 nM at D(4) dopamine receptor.

`Cc1c(C(=O)NCCCCCN2CCN(c3cccc(Cl)c3Cl)CC2)nnn1Cc1ccccc1`: the inhibition constant (Ki) is 10 nM on D(2) dopamine receptor [1], 8.51 nM on D(3) dopamine receptor [2] and 251 nM on D(4) dopamine receptor.

For `OCc1ccc2c(CN3CCN(c4ccc(Cl)cc4)CC3)cnn2c1`, the Ki at D(2) dopamine receptor [1] is 27500 nM; at D(4) dopamine receptor it was 19.5 nM.

`O=C(NCCCCN1CCN(c2cccc(Cl)c2Cl)CC1)c1cc2ccccc2[nH]1` had a Ki on D(3) dopamine receptor [2] of 0.661 nM.

As to `Cc1c(C(=O)NCCCCN2CCN(c3cccc(Cl)c3Cl)CC2)nnn1Cc1ccccc1`, the inhibitory constant (Ki) is 38.9 nM at D(2) dopamine receptor [1], 4.27 nM at D(3) dopamine receptor [2] and 282 nM at D(4) dopamine receptor.

As to `O=C(NCCCCN1CCN(c2ccccc2Cl)CC1)c1ccc(-c2ccccc2)cc1`, the figures for the Ki at D(2) dopamine receptor [1], at D(3) dopamine receptor [2] and at D(4) dopamine receptor were 129 nM, 0.28 nM and 240 nM, respectively.

With `COc1ccccc1N1CCN(CCCCNC(=O)c2cc3cc(C#N)ccc3o2)CC1`, at D(3) dopamine receptor [2], the affinity, expressed as Ki, was 4.27 nM.

For `O=C(NCCCCN1CCN(c2cccc(Cl)c2Cl)CC1)c1cc2cc(Br)ccc2o1`, the results for the inhibition constant (Ki) at D(2) dopamine receptor [1], at D(3) dopamine receptor [2] and at D(4) dopamine receptor were 10000 nM, 3.47 nM and 3090 nM, respectively.

`COc1ccccc1N1CCN(CCCCNC(=O)c2nnn(Cc3ccccc3Br)c2C)CC1`: the Ki is 61.7 nM on D(2) dopamine receptor [1], 32.4 nM at D(3) dopamine receptor [2] and 91.2 nM at D(4) dopamine receptor.

Regarding `CCCc1c(C(=O)NCCCCN2CCN(c3ccccc3OC)CC2)nnn1Cc1ccccc1Br`, the Ki was 21.9 nM at D(2) dopamine receptor [1], 3.47 nM on D(3) dopamine receptor [2] and 75.9 nM on D(4) dopamine receptor.

On to `Cc1cccc2c(CN3CCN(c4ccc(Cl)cc4)CC3)cnn12`, for which, at D(3) dopamine receptor [2], the inhibitory constant (Ki) was 3720 nM.

As for `CCCc1c(C(=O)NCCCCN2CCN(c3cccc(Cl)c3Cl)CC2)nnn1Cc1ccccc1`, the values for the Ki on D(2) dopamine receptor [1], on D(3) dopamine receptor [2] and on D(4) dopamine receptor were 14.1 nM, 2.4 nM and 219 nM, respectively.

Take `COc1ccc(Cn2nnc(C(=O)NCCCCN3CCN(c4ccccc4OC)CC3)c2C)cc1`: the inhibition constant Ki on D(2) dopamine receptor [1] was 55 nM; on D(3) dopamine receptor [2], 28.8 nM; on D(4) dopamine receptor, 282 nM.
